Reference: patent publication US6440445B1, “Methods and compounds for treatment of abnormal uterine bleeding” (Brigham & Women's Hospital, priority 1996, dated 2002)

Columns and labels:
myometrial cells [1] = assay: Pirfenidone: cell proliferation (tritiated thymidine incorporation, cell number), myometrial cells; format: cell-based; conditions: p<0.01
From the text: (§1) We have also discovered that pirfenidone is a response-blocking compound. Pirfenidone is an antifibrotic agent which is being investigated for use in patients with pulmonary fibrosis. […] Possible cytotoxic effects were examined using lactate dehydrogenase assays and trypan blue exclusion.

leiomyoma cells [2] = assay: Collagen type I and III messenger RNA expression by RNA blotting, leiomyoma cells; format: cell-based
leiomyoma cells [3] = assay: Pirfenidone: cell proliferation (tritiated thymidine incorporation, cell number), leiomyoma cells; format: cell-based; conditions: p<0.01
From the text: as §1

myometrial cells [4] = assay: Cytotoxicity (lactate dehydrogenase assay, trypan blue exclusion), myometrial cells; format: cell-based
From the text: as §1
(§2) Additionally, the effect of pirfenidone on cell proliferation and the percentage of dead cells was examined, and the results from the two experiments are shown in FIG. 12.

leiomyoma cells [5] = assay: Cytotoxicity (lactate dehydrogenase assay, trypan blue exclusion), leiomyoma cells; format: cell-based
From the text: as §1, §2

human fibroblasts = conditions: in response to bFGF, TGFB and PDGF; cited from earlier work
myometrial cells [6] = assay: Collagen type I and III messenger RNA expression by RNA blotting, myometrial cells; format: cell-based
[7] = test system: FGF / specific cell surface receptors; conditions: cited from earlier work
smooth muscle cell = conditions: also certain tumor cells; cited from earlier work
[8] = test system: vascular smooth muscle cells, T cells, and fibroblasts; conditions: wide variety of cells; cited from earlier work
[9] = test system: cultured human myometrial smooth muscle cells; assay: DNA synthesis (tritiated thymidine incorporation) in cultured myometrial smooth muscle cells; format: cell-based; conditions: for basal and serum-stimulated DNA synthesis (tritiated thymidine incorporation): interferon 10, 100, 1000 U/ml, 24 hr, serum-free 0.1% BSA or 10% fetal bovine serum
Description: (§3) Myometrial and leiomyoma cells from the same patients were used at first passage for proliferation assays. 10,000 cells were plated per well in 96-well plates in medium+10 % serum. Cells were cultured for three days and then placed in serum-free medium for 48 hr to attain quiescence. Interferon-α was tested at the following doses in 10% serum-containing medium; 0, 10, 100 and 1000 U/ml for a period of 24 hr. Tritiated thymidine (luCi/ml) was added to the culture wells for the final 4-6 hr of incubation, the medium removed, cells harvested and counted for thymidine incorporation.
(§4) Effects on basal DNA synthesis were tested using cells cultured in serum-free medium containing only 0.1% BSA while effects on serum-stimulated cells were assessed using cells cultured in medium with 10% fetal bovine serum.
(§5) FIGS. 6c and 6d show the effects of interferon-α on bFGF induced increases in DNA synthesis by uterine myometrial and leiomyoma cells, respectively. Cells were treated with either medium+10% serum of various concentrations of bFGF (0.5 ng/ml, 1.0 ng/ml, 5.0 ng/m. and 10 ng/ml) to compare mitogenic effects. Cells cultured in serum were also treated with interferon-α at 10, 100 and 1000 U/ml, while cells cultured in the various concentrations of bFGF were treated with 100 U/ml of interferon α.

[10] = test system: endometrial stromal cells; assay: DNA synthesis in endometrial stromal cells; format: cell-based
From the text: Interferons blocked both bFGF and serum-stimulated DNA synthesis in these cells. […] The results also show the effects of increasing concentrations of interferon-alpha on serum stimulated DNA synthesis.
The results also show the effects of increasing concentrations of interferon-alpha (10, 100 and 1000 U/ml) on serum (2%) stimulated DNA synthesis.

[11] = test system: cultured human leiomyoma smooth muscle cells; assay: DNA synthesis (tritiated thymidine incorporation) in cultured leiomyoma smooth muscle cells; format: cell-based; conditions: for basal and serum-stimulated DNA synthesis (tritiated thymidine incorporation): interferon 10, 100, 1000 U/ml, 24 hr, serum-free 0.1% BSA or 10% fetal bovine serum
Description: as §3, §4, §5

uterine stromal cells = assay: Proliferation of uterine stromal cells (cell counts); format: cell-based; conditions: only in the presence of progesterone (10 ng/ml bFGF + 100 nm MPA); 7 days
Description: Stromal cells were used at the first passage and were plated into 100 mm dishes (200,000/dish) in serum-containing medium. The following day, cells were rinsed and transferred to serum-free medium containing insulin, transferrin and selenium. Cells remained in this medium for 48 hr to induce quiescence and then received fresh serum-free medium with one of the following treatments: ITS (medium containing only insulin, transferin, and selenium), ITS+10% fetal bovine serum, MPA (ITS+100 nm medroxy progesterone acetate), E2 (ITS+10 nm estradiol 17-beta), bFGF (ITS+10 ng/ml bFGF), bFGF/E2/MPA (ITS+100 nm MPA+10 nm estradiol+10 ng/ml bFGF), bFGF+2% fetal bovine serum (ITS+10 ng/ml bFGF+2% fetal bovine serum), bFGF+MPA (ITS+10 ng/ml bFGF+100 nm MPA) and bFGF+E2 (TS+10 ng/ml bFGF+10 nm estradiol). Cells were treated for a total of 7 days with cell counts performed on days 2, 4 and 7.

[12] = bFGF 0.5-10 ng/ml with 100 U/ml interferon

Cc1ccc(=O)n(-c2ccccc2)c1 [pirfenidone, 5-methyl-1-phenyl-2-(1H)-pyridone]
cell proliferation (myometrial cells [1]): dose dependent inhibition | levels of RNA for collagen type I (leiomyoma cells [2]): reduced | levels of RNA for collagen type III (leiomyoma cells [2]): reduced | cell proliferation (leiomyoma cells [3]): dose dependent inhibition | lactate dehydrogenase (LDH) levels (myometrial cells [4]): No significant effects | cytotoxic effect on the cells (myometrial cells [4]; at the doses tested): no cytotoxic effect | percentage of dead cells (myometrial cells [4]; only at 1.0 mg/ml, p<0.05): significant increase | lactate dehydrogenase (LDH) levels (leiomyoma cells [5]): No significant effects | cytotoxic effect on the cells (leiomyoma cells [5]; at the doses tested): no cytotoxic effect | percentage of dead cells (leiomyoma cells [5]; only at 1.0 mg/ml, p<0.05): significant increase | fibroblast proliferation in vitro (human fibroblasts): inhibit fibroblast proliferation | levels of RNA for collagen type I (myometrial cells [6]): reduced | levels of RNA for collagen type III (myometrial cells [6]): reduced

heparin
binding of FGF to specific cell surface receptors [7]: inhibit FGF binding | smooth muscle cell proliferation (smooth muscle cell): very good inhibitors

Cc1ccc(C(=O)Nc2ccc(S(=O)(=O)O)c3cc(S(=O)(=O)O)cc(S(=O)(=O)O)c23)cc1NC(=O)c1cccc(NC(=O)Nc2cccc(C(=O)Nc3cc(C(=O)Nc4ccc(S(=O)(=O)O)c5cc(S(=O)(=O)O)cc(S(=O)(=O)O)c45)ccc3C)c2)c1 [suramin]
FGF induced proliferation [8]: very potent inhibitor | binding of FGF to specific cell surface receptors [7]: interfere with the ability of FGFs to bind

interferon-α
bFGF induced DNA synthesis [9, 12]: abolished the stimulating effect | basal and serum-stimulated DNA synthesis (tritiated thymidine incorporation) [9]: dose-dependent inhibition | basal and serum-stimulated DNA synthesis (tritiated thymidine incorporation) ([9]; listed as interferon alpha): tritiated thymidine incorporation decreases | serum-stimulated DNA synthesis ([10]; 2% serum, interferon 10, 100, 1000 U/ml): blocked | bFGF stimulated DNA synthesis ([10]; bFGF 0.1-5 ng/ml, 100 U/ml interferon): blocked | bFGF induced DNA synthesis [11, 12]: inhibitory effect | basal and serum-stimulated DNA synthesis (tritiated thymidine incorporation) [11]: dose-dependent inhibition | basal and serum-stimulated DNA synthesis (tritiated thymidine incorporation) ([11]; listed as interferon alpha): tritiated thymidine incorporation decreases

bFGF: basic fibroblast growth factor, angiogenic growth factor
effect of growth factor on DNA synthesis ([9]; bFGF 0.5-10 ng/ml): increase in DNA synthesis | proliferation of uterine stromal cells (cell number) (uterine stromal cells): stimulates the proliferation
